What all share (assay type): cell-based
Assay [1] concerns Human Cav2.1 (Q1856E). The conditions noted are these: read-out: IBa inhibition; 50 µM.
Assay [2] concerns Human Cav2.3d (Y1761F). The conditions noted are these: 50 µM.
For assay [3], the system named is Human Cav2.3d (Y1765F). The conditions noted are these: read-out: IBa inhibition; 50 µM.
In assay [4] the test system is Human Cav2.3c (Y1761F). The conditions noted are these: 50 µM.
Assay [5] concerns Human Cav2.1 (L1852T). The conditions noted are these: read-out: IBa inhibition; 50 µM.
The test system of assay [6] is c-Src / human Cav2.1 channel and GABABR.
The test system of assay [7] is c-Src / human Cav2.3c channel and GABABR.

Marks after values point to notes of the source that are not given here. Where no end group is shown, it is not given here.

The inhibition is the relative decrease from the control value, in per cent. As for `NCC(CC(=O)O)c1ccc(Cl)cc1` (stereo not shown) [Baclofen, baclofen], the inhibition in assay [1] stood at 47.9%; in assay [3] it was 28.9%; in assay [5], 50.6%. Further, the IBa inhibition in assay [2] is 21.9 ± 1.8 (11) ^c %; in assay [4], 14.6 ± 1.8 (8) ^c %.
As for “pp60c-Src peptide: phosphorylated synthetic pp60c-Src peptide (521–533) (DYFTSTEPQYQPG; also: phosphorylated, site not given here; UniProt P12931 521-533, looked up, fragment)”, the “baclofen inhibition of IBa with wild-type c-Src overexpression or pp60c-Src peptide” value in assay [6] is reported as “did not affect baclofen inhibition of IBa”. Further, the “effect of pp60c-Src peptide on c-Vc1.1 and baclofen inhibition of IBa” value in assay [7] is “The effect of K295R/Y527F c-Src was recapitulated”.

For the origin of these results see PMC3971658 (The Journal of General Physiology, 2014).
